pIC50: −log10 of the molar value. Where a name gives a salt, the structure may show the parent alone.
Assays:
[1] = tested on: benzodiazepine receptor; test: in vivo benzodiazepine receptor binding (3H-flunitrazepam); settings: 30 mg/kg p.o. in the mouse
Experimental: In vivo benzodiazepine receptor binding is determined essentially as described in Eur. J. Pharmacol. 48, 213 (1978) and Nature 275, 551 (1978).
Test compounds in a corn starch vehicle are administered orally or intraperitioneally to mice or rats. Thirty minutes later, 3H-flunitrazepam(2 nmoles/Kg in saline) is injected into the tail vein, and the animals are sacrificed 20 minutes after injection of the flunitrazepam. The brains are then assayed by determining radioactivity in a liquid scintillation counter for binding of the radioligand to the receptors. A decrease in the binding of 3H-flunitrazepam in the drug-treated animals (as compared with the binding observed in animals treated with vehicle alone) is indicative of benzodiazepine receptor binding by the test compound.

[2] = biological target: benzodiazepine receptor; test: in vitro benzodiazepine receptor binding assay (tritiated diazepam displacement); settings: inhibition of specific binding of 2 nM tritiated diazepam, membranes from rat fore-brain, 0°-5°, 30 minutes, pH 7.5
Experimental: The benzodiazepine receptor binding properties indicative of the nervous system regulatory activity of said new compounds are determined in the receptor binding assay in vitro, e.g. as described in Nature 266, 732 (1977) or Proc. Nat. Acad. Sci. USA 74, 3805 (1977). Diazepam binds specifically and with high affinity to crude synaptosomal membrane preparations from rat fore-brain. This binding is inhibited by other anxiolytic compounds. When tritiated diazepem is used, the interaction of other drugs with said receptor can be readily assessed thus: membranes from rat fore-brain are incubated at 0°-5° for 30 minutes with 2 nM tritiated diazepam and various concentrations of the test substance in a buffer medium maintained at pH 7.5. Solutions of the various concentrations of test substances are prepared by dilution of a 4.2 mM stock solution in dimethylacetamide-ethanol (1:10) with 50 mM pH7.5. Tris-HCl buffer. The membranes, containing the receptors with various amounts of tritiated diazepam, are filtered onto glass fiber filters, which are then analyzed in a liquid scintillation counter. The concentration of the compounds of this invention, required to inhibit the specific binding of 2 nM of tritiated diazepam by 50%, i.e. the IC50, is determined graphically.

pIC50 [2] | SMILES | inhibits flunitrazepam binding in vivo [1]
 | O=c1c2c[nH]c3ccncc3c-2nn1-c1ccccc1 [Example 1, 2-phenyl-pyrazolo[4,3-c][1,6]naphthyridin-3(5H)-one] | about 75%
~9.70 | O=c1c2c[nH]c3ccncc3c-2nn1-c1ccc(Cl)cc1 [Example 2, 2-p-chlorophenyl-pyrazolo[4,3-c][1,6]naphthyridin-3(5H)-one] | 
~8.52 | O=c1c2c[nH]c3ccncc3c-2nn1-c1cccnc1 [Example 5a, 2-(3-pyridyl)pyrazolo[4,3-c][1,6]naphthyridin-3-(5H)-one hydrochloride] | 
~8.05 | O=c1c2c[nH]c3sccc3c-2nn1-c1ccc(Cl)cc1 [Example 9, 2-(4-chlorophenyl)-thieno[2,3-b]pyrazolo[3,4-d]pyridin-3(5H)-one hydrate] | 

Source: patent US4560689A, “Heterocyclic-fused pyrazolo-[3,4-d]pyridin-3-ones as benzodiazepine receptor modulators” (Ciba-Geigy Corporation, priority 1984, dated 1985)
